According to article PMC6271978, “1H-2,3-Dihydroperimidine Derivatives: A New Class of Potent Protein Tyrosine Phosphatase 1B Inhibitors” (Molecules, 2013):

What was measured:
Format in all cases: biochemical
PTP1B (GST-PTP1B) = biological target: T1, PTP1B (GST-PTP1B) (Homo sapiens, UniProt P18031); assay: PTP1B inhibition, colorimetric pNPP assay; conditions: pNPP substrate
T1 sequence (P18031 1-435): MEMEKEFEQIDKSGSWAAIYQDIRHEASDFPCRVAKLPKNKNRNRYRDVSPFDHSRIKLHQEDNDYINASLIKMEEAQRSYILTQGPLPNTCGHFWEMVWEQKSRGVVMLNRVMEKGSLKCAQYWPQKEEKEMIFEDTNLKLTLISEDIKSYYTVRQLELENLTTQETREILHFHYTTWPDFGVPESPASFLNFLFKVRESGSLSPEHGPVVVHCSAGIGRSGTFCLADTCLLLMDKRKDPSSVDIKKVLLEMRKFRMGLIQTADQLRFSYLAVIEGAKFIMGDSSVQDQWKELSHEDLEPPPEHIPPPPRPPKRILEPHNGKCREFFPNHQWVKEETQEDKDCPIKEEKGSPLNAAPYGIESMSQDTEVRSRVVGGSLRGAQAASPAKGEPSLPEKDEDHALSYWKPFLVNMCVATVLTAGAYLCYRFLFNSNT

TCPTP (GST-TCPTP) = biological target: T2, TCPTP (GST-TCPTP) (Homo sapiens, UniProt P17706); assay: TCPTP inhibition, colorimetric pNPP assay
T2 sequence (P17706 1-415): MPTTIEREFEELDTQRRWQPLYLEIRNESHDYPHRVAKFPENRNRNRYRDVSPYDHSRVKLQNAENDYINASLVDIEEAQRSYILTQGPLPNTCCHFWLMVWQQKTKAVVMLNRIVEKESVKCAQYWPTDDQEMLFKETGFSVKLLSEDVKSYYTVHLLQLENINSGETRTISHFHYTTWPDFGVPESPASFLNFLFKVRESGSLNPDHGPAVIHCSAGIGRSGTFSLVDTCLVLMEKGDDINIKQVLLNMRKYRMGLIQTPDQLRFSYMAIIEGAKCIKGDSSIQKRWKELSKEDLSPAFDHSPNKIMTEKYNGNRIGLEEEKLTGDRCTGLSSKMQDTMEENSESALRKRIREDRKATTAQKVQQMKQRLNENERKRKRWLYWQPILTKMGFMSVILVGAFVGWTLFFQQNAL
Protocol: (§1) In addition to potency improvements, we investigated the selectivity of three representative compounds, namely, 1, 46 and 49 against other PTPs (TCPTP, SHP-1, SHP-2, LAR). […] Besides TCPTP, we tested the inhibitory activity of these compounds on other three homogenous enzymes SHP-1, SHP-2, and LAR [25].
(§2) A colorimetric assay to measure inhibition against PTP1B and TCPTP was performed in 96-well plates. Briefly, the tested compounds were solubilized in DMSO and serially diluted into concentrations for the inhibitory test. The assays were carried out in a final volume of 100 μL containing 50 mmol/L MOPS, pH 6.5, 2 mmol/L pNPP, 30 nmol/L GST-PTP1B or GST-TCPTP,and 2% DMSO, and the catalysis of pNPP was continuously monitored on a SpectraMax 340 microplate reader at 405 nm for 3 min at 30 °C. The IC50 value was calculated from the nonlinear curve fitting of the percent inhibition [inhibition (%)] vs. the inhibitor concentration using the Equation (1): Inhibition (%) = 100/[1 + (IC50/[I]k)] (1) where k is the Hill coefficient. To study the inhibition on the other PTPase family members, SHP1, SHP2 and LAR were prepared and assays were performed according to procedures described previously. Briefly, the enzymatic activity of the SHP1, SHP2 and LARwere determined at 30 °C by monitoring the dephosphorylation of substrate 3-o-methylfluorescein phosphate (OMFP), product was then detected at a 485 nm excitation wavelength and 530 nm emission wavelength by the EnVision multilabe plate reader (Perkin-Elmer Life Sciences, Boston, MA, USA). The assays were carried out in a final volume of 50 μL containing 50 mmol/L MOPS, pH 6.8, 10 μmol/L OMFP, 20 nmol/L recombinant enzyme, 2 mmol/L dithiothreitol , 1 mmol/L EDTA, and 2% DMSO. The initial rate of the dephosphorylation was presented by the early linear region of the enzymatic reaction kinetic curve, the inhibitory activity of the compound was continuously monitored.

SHP-2 = biological target: T3, SHP-2 (Homo sapiens, UniProt Q06124); assay: SHP-2 inhibition, OMFP substrate assay
T3 construct: made in house
T3 sequence (Q06124 1-593): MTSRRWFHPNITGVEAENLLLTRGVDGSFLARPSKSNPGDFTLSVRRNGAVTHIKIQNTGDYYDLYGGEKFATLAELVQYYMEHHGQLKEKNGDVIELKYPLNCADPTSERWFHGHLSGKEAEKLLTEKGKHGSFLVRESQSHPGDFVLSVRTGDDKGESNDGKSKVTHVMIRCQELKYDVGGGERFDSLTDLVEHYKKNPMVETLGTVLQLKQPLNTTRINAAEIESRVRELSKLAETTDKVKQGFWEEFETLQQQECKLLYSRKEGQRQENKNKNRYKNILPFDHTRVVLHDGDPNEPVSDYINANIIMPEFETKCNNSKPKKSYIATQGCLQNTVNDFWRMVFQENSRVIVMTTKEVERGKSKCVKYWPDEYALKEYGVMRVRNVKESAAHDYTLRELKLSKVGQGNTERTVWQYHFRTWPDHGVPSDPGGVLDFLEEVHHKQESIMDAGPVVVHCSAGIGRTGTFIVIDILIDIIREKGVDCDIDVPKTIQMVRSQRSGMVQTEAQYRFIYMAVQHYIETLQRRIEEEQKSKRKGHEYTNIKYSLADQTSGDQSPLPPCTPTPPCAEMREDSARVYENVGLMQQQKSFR
Protocol: as §1, §2

LAR = biological target: T4, LAR (Homo sapiens, UniProt P10586); assay: LAR inhibition, OMFP substrate assay; conditions: NA = no activity (inhibitory ratio lower than 50% at the dose of 20 μg/mL), PC = Na3VO4
T4 sequence (P10586 1352-1607 limits assumed): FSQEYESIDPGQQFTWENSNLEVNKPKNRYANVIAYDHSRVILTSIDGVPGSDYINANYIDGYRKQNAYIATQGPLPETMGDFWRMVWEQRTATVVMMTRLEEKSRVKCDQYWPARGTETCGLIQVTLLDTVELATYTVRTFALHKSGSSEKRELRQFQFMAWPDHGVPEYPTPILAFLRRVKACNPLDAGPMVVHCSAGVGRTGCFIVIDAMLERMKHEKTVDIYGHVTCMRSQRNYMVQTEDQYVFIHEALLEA
Protocol: as §1
as §2, with “To study the inhibition on the other PTPase family members, SHP1, SHP2 and LAR were prepared and assays were performed according to procedures described previously.” left out, “The assays were carried out in a final volume of 50 μL containing 50 mmol/L MOPS, pH 6.8, 10 μmol/L OMFP, 20 nmol/L recombinant enzyme, 2 mmol/L dithiothreitol , 1 mmol/L EDTA, and 2% DMSO. The initial rate of the dephosphorylation was presented by the early linear region of the enzymatic reaction kinetic curve, the inhibitory activity of the compound was continuously monitored.” left out

[1] = means ± SD of three replications, OA/PC = oleanolic acid positive control

inhibition at 20 µg/mL (PTP1B (GST-PTP1B); PTP1B, compound at 20 μg/mL): 99.5%
IC50 (PTP1B (GST-PTP1B); [1]): 0.66 ± 0.03 µM
IC50 PTP1B (PTP1B (GST-PTP1B); [1]): submicromolar
IC50 (TCPTP (GST-TCPTP); pNPP substrate, means ± SD of three replications, PC = oleanolic acid): 2.3 ± 0.17 µM
TCPTP/PTP1B (selectivity, fold) (TCPTP (GST-TCPTP); ratio of IC50 TCPTP to IC50 PTP1B): 3.48
IC50 (SHP-2; OMFP substrate, means ± SD of three replications, PC = Na3VO4): 5.95 ± 0.29 µM
selectivity for PTP1B over SHP-2 (SHP-2; from IC50 values): about 9 fold
IC50 LAR (LAR): no visible activities
Structure (SMILES): O=C(O)CNC(=O)c1ccc(C2Nc3cccc4cccc(c34)N2)nc1 [Compound 46]
